Experimental data from patent publication EP0193189A1, “Novel compound, its production and insecticidal and acaricidal composition containing it as an active ingredient” (SUMITOMO CHEMICAL COMPANY, LIMITED, priority 1985, dated 1986).
Converted amounts (≈) assume the structure as drawn.

Columns and labels:
Assay type in all cases: in vivo
[1] = test system: common mosquito (Culex pipiens pallens); experiment: Test Example 1: common mosquito larvae in diluted emulsifiable concentrate, mortality and emergence inhibition; conditions: Culex pipiens, 3.5 ppm; for mortality at 3.5 ppm: 24 h, 20 last instar larvae, after one day, read-out: Mortality; for pest or weed control at 3.5 ppm: counted when all pupae of no treatment group had emerged, read-out: Inhibitory ratio of emergence
Procedure: The emulsifiable concentrates of the following present compounds obtained according to Formulation example 2 were each diluted with water so as to obtain respective aqueous solutions containing 3.5 ppm of said compounds, respectively. One hundred ml of thus diluted aqueous solutions were poured into respective polyethylene cups of 180 ml volume, and 20 of the last instar larvae of common mosquito (Culex pipiens pallens) were liberated thereto. After one day, the dead or alive of the larvae were examined.
Thereafter, the feed was added to respective cups and the number of emerged pupae of the respective cups was counted when all the pupae of no treatment group had emerged to calculate the inhibitory ratios of the emergence.
The mortality and the inhibitory ratio of the emergence are shown according to the following three criteria: • mortality: A; 90% or more, • B; less than 90% to 10%, • C; less than 10%. • inhibitory: A; 90% or more, ratio of • emergence B; less than 90% to 80% • C; less than 80%.

[2] = test system: tobacco cutworms (Spodoptera litura); experiment: Test Example 2: tobacco cutworm larvae on treated artificial feed; conditions: Spodoptera litura, 144 h; 150 ppm solution, 2 ml in 13 g artificial feed; 4th instar larvae; six days after; read-out: Mortality (%)
Text: The emulsifiable concentrates of the following present compounds obtained according to Formulation example 2 were each diluted with water to obtain respective 667 times dilution aqueous solutions (corresponding to 150 ppm) containing said compounds, respectively. Two ml of thus diluted solutions were impregnated into the artificial feeds (13 g) for tobacco cutworms (Spodoptera litura) and thus prepared feeds were placed in polyethylene cups of 11 cm in diameter, respectively. Ten of the 4th instar larvae were liberated thereon.
Six days after, the dead and alive of the larvae were examined to calculate the mortality (two replications).

[3] = test system: resistant strain of green rice leafhopper (Nephotetix cincticeps); experiment: Test Example 3: rice seedling dip test, resistant green rice leafhopper; conditions: Nephotettix cincticeps, 24 h, rice seedlings dipped 1 minute; adults of resistant strain; after one day; read-out: LC50 value (ppm)
Procedure: The emulsifiable concentrates of the following present compounds and control compounds obtained according to Formulation example 2 were each diluted with water to a prescribed concentration, and rice seedlings (about 12 cm in length) were dipped for 1 minute in the resulting aqueous dilute solutions. After air-drying, the seedlings were placed in test tube, and 10 adults of a resistant strain of green rice leafhopper (Nephotetix cincticeps) were liberated in the tube. After one day, the dead and alive of the adults were examined to obtain LC50 (50% lethal concentration)(two replications).

Row | Structure (SMILES) | mortality at 3.5 ppm [1] | pest or weed control at 3.5 ppm [1] | mortality at 150 ppm [2] | LC50 [3]
1 | C#CC(C)(CCCc1ccc(F)c(Oc2ccccc2)c1)c1ccc(OCC=C)cc1 (centres unmarked) [(8)] | > 90% | > 90% | 100% | 54 µg/mL (≈ 130 µM)
2 | C#CC(C)(CCCc1ccc(F)c(Oc2ccccc2)c1)c1ccc(Cl)cc1 (centres unmarked) [(10)] | > 90% | > 90% | 100% | 32 µg/mL (≈ 81.4 µM)
3 | C#CC(C)(CCCc1cccc(Oc2ccccc2)c1)c1ccc2c(c1)OCO2 (centres unmarked) [(14)] | > 90% | > 90% | 100% | –
4 | C#CC(C)(CCCc1cccc(Oc2ccc(F)cc2)c1)c1ccc(OCC)cc1 (centres unmarked) [(15)] | > 90% | > 90% | 100% | 3.6 µg/mL (≈ 8.94 µM)
5 | C#CC(C)(CCCc1cccc(Oc2ccccc2)c1)c1ccc(OCC)c(Cl)c1 (centres unmarked) [(16)] | 10 to 90% | > 90% | 100% | 15 µg/mL (≈ 35.8 µM)
6 | C=CC(C)(CCCc1cccc(Oc2ccccc2)n1)c1ccc(OCC)cc1 (centres unmarked) [(19)] | 10 to 90% | > 90% | – | –
7 | C#CC(C)(CCCc1cccc(Sc2ccccc2)c1)c1ccc(OCC)cc1 (centres unmarked) [(22)] | 10 to 90% | > 90% | 100% | 90 µg/mL (≈ 225 µM)
8 | C#CC(C)(CCCc1cccc(Oc2ccccc2)c1)c1ccc(CC)cc1 (centres unmarked) [(23)] | > 90% | > 90% | 100% | 40 µg/mL (≈ 109 µM)
9 | C#CC(C)(CCCc1cccc(Oc2ccccc2)c1)c1ccc(OC)cc1 (centres unmarked) [(24)] | 10 to 90% | > 90% | 100% | 27 µg/mL (≈ 72.9 µM)
10 | C#CC(C)(CCCc1cccc(Oc2ccccc2)c1)c1ccc(Cl)cc1 (centres unmarked) [(25)] | > 90% | > 90% | 100% | 61 µg/mL (≈ 163 µM)
11 | C#CC(CC)(CCCc1cccc(Oc2ccccc2)c1)c1ccc(Cl)cc1 (centres unmarked) [(26)] | > 90% | > 90% | – | –
12 | C#CC(CCCc1cccc(Oc2ccccc2)c1)c1ccc(OCC)cc1 (centres unmarked) [(28)] | > 90% | > 90% | – | –
13 | C#CC(CC)(CCCc1ccc(F)c(Oc2ccccc2)c1)c1ccc(OCC)cc1 (centres unmarked) [(29)] | > 90% | > 90% | 100% | –
14 | C#CC(C)(CCCc1ccc(F)c(Cc2ccccc2)c1)c1ccc(OCC)cc1 (centres unmarked) [(30)] | > 90% | > 90% | 100% | 28 µg/mL (≈ 69.9 µM)
15 | C=CC(C)(CCCc1ccc(F)c(Nc2ccccc2)c1)c1ccc(OCC)cc1 (centres unmarked) [(31)] | > 90% | > 90% | 100% | –
16 | C#CC(CC)(CCCc1cccc(Oc2ccccc2)c1)c1ccc(OCC)cc1 (centres unmarked) [(32)] | > 90% | > 90% | – | –
17 | C#CC(C)(CCCc1ccc(F)c(Oc2ccc(C)cc2)c1)c1ccc(OCC)cc1 (centres unmarked) [(33)] | > 90% | > 90% | 100% | 23 µg/mL (≈ 55.2 µM)
18 | C#CC(C)(CCCc1ccc(F)c(Oc2ccccc2)c1)c1ccc(Cl)c(Cl)c1 (centres unmarked) [(36)] | 10 to 90% | > 90% | – | 64 µg/mL (≈ 150 µM)
19 | C#CC(C)(CCCc1ccc(F)c(Oc2ccccc2)c1)c1ccc(OCC=C)c(Cl)c1 (centres unmarked) [(40)] | 10 to 90% | > 90% | – | 46 µg/mL (≈ 102 µM)
20 | C#CC(CC)(CCCc1ccc(F)c(Oc2ccccc2)c1)c1ccc(Cl)cc1 (centres unmarked) [(41)] | > 90% | > 90% | – | –
21 | C#CC(CCCC)(CCCc1ccc(F)c(Oc2ccccc2)c1)c1ccc(OCC)cc1 (centres unmarked) [(42)] | 10 to 90% | > 90% | 100% | –
22 | C#CC(C)(CCCc1cccc(Oc2ccccc2)n1)c1ccc(OC)cc1 (stereo not drawn) [(44), 3-(4-methoxyphenyl)-3-methyl-6-(6-phenoxy-pyridin-2-yl)-l-hexyne] | 10 to 90% | > 90% | 100% | –
